The source of these data is article PMC11370357 (bioRxiv, 2024).

The target in this assay is T1, GPRC6A (Homo sapiens, UniProt Q5T6X5).
T1 sequence (Q5T6X5 19-926): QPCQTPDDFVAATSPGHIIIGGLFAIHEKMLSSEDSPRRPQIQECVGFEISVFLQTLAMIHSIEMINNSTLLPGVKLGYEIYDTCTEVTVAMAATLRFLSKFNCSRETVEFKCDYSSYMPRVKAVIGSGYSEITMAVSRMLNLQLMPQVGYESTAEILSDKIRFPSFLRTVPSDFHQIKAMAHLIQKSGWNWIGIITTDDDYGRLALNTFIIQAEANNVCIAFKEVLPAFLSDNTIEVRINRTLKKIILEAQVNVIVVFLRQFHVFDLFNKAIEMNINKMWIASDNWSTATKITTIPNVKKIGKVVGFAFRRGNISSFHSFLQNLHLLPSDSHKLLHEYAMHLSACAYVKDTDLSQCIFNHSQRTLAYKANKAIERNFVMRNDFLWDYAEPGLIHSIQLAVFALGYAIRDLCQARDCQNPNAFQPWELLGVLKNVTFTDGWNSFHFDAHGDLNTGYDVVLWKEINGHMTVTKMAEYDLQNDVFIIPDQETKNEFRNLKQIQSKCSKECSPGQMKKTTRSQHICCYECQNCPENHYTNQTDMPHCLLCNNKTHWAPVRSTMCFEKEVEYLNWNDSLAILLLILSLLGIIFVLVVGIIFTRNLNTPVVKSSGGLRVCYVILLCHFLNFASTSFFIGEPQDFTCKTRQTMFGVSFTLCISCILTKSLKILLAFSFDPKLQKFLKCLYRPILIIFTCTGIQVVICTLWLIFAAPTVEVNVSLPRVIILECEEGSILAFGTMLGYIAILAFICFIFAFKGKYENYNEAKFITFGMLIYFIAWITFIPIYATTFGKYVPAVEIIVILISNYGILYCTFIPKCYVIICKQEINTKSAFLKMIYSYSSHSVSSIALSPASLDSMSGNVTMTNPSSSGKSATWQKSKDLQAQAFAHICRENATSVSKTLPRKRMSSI
The format is cell-based.

As a reminder, the EC50 is the concentration that produces a half-maximal response.

Consider `CN(C)C(=N)N=C(N)N` [metformin, 1,1-dimethylbiguanide], for which a half-maximal response (EC50) required 284 µM.
